In patent US20100292266A1, “Oxazolyl Piperidine Modulators of Fatty Acid Amide Hydrolase” (priority 2006, published 2010):

What was measured:
FAAH = molecular target: T1, FAAH (Homo sapiens, UniProt O00519); experiment: Assay Method 1: FAAH assay, 3H-anandamide hydrolysis in cell homogenate; assay type: biochemical; parameters: expressed in transfected cells; conditions: T84 or transfected SK-N-MC cell homogenate, 80 nM 3H-AEA, 1 h rt, > = solubility limit or highest concentration tested
T1 sequence (O00519 1-579): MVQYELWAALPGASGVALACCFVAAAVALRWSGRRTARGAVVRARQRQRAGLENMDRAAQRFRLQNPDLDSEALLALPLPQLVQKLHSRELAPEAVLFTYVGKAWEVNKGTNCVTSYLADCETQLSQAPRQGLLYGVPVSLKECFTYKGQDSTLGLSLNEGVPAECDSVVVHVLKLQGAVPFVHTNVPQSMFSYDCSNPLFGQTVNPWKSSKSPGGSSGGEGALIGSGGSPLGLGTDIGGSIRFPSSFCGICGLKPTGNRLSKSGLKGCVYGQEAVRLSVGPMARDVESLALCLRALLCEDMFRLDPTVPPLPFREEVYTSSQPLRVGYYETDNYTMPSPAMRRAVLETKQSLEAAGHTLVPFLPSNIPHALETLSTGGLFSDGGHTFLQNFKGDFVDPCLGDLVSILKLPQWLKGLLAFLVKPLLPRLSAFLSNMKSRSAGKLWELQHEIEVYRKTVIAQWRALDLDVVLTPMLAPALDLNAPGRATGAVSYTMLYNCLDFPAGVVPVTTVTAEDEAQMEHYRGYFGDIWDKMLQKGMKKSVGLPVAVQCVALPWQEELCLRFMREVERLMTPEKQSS
Experimental: A. Transfection of Cells with Human FAAH
(§1) A 10-cm tissue culture dish with a confluent monolayer of SK-N-MC cells was split 2 days (d) prior to transfection. Using sterile technique, the media was removed and the cells were detached from the dish by the addition of trypsin. One fifth of the cells were then placed onto a new 10-cm dish. Cells were grown in a 37° C. incubator with 5% CO2 in Minimal Essential Media Eagle with 10% Fetal Bovine Serum. After 2 d, cells were approximately 80% confluent. These cells were removed from the dish with trypsin and pelleted in a clinical centrifuge. The pellet was re-suspended in 400 μL complete media and transferred to an electroporation cuvette with a 0.4 cm gap between the electrodes. Supercoiled human FAAH cDNA (1 μg) was added to the cells and mixed. The voltage for the electroporation was set at 0.25 kV, and the capacitance was set at 960 μF. After electroporation, the cells were diluted into complete media (10 mL) and plated onto four 10-cm dishes. Because of the variability in the efficiency of electroporation, four different concentrations of cells were plated. The ratios used were 1:20, 1:10, and 1:5, with the remainder of the cells being added to the fourth dish. The cells were allowed to recover for 24 h before adding the selection media (complete media with 600 μg/mL G418). After 10 d, dishes were analyzed for surviving colonies of cells. Dishes with well-isolated colonies were used. Cells from individual colonies were isolated and tested.
(§2) The assay mixture consisted of 50 μL of the cell homogenate, 10 μL of the test compound, and 40 μL of anandamide [1-^3H-ethanolamine] (^3H-AEA, Perkin-Elmer, 10.3 Ci/mmol), which was added last, for a final tracer concentration of 80 nM. The reaction mixture was incubated at rt for 1 h. During the incubation, 96-well Multiscreen filter plates (catalog number MAFCNOB50; Millipore, Bedford, Mass., USA) were loaded with 25 μL of activated charcoal (Multiscreen column loader, catalog number MACL09625, Millipore) and washed once with 100 μL of MeOH. Also during the incubation, 96-well DYNEX MicroLite plates (catalog number NL510410) were loaded with 100 μL of MicroScint40 (catalog number 6013641, Packard Bioscience, Meriden, Conn., USA). After the 1 h incubation, 60 μL of the reaction mixture were transferred to the charcoal plates, which were then assembled on top of the DYNEX plates using Centrifuge Alignment Frames (catalog number MACF09604, Millipore). The unbound labeled ethanolamine was centrifuged through to the bottom plate (5 min at 2000 rpm), which was preloaded with the scintillant, as described above. The plates were sealed and left at rt for 1 h before counting on a Hewlett Packard TopCount.
(§3) Where activity is shown as greater than (>) a particular value, the value is the solubility limit of the compound in the assay medium or the highest concentration tested in the assay.

Rat FAAH = molecular target: T2, Rat FAAH (Rattus norvegicus, UniProt P97612); experiment: Assay Method 2: FAAH assay, 3H-anandamide hydrolysis in cell homogenate; assay type: biochemical; conditions: transfected SK-N-MC cell homogenate, 80 nM 3H-AEA, 1 h rt, > = solubility limit or highest concentration tested
T2 construct: expressed in transfected cells
T2 sequence (P97612 1-579): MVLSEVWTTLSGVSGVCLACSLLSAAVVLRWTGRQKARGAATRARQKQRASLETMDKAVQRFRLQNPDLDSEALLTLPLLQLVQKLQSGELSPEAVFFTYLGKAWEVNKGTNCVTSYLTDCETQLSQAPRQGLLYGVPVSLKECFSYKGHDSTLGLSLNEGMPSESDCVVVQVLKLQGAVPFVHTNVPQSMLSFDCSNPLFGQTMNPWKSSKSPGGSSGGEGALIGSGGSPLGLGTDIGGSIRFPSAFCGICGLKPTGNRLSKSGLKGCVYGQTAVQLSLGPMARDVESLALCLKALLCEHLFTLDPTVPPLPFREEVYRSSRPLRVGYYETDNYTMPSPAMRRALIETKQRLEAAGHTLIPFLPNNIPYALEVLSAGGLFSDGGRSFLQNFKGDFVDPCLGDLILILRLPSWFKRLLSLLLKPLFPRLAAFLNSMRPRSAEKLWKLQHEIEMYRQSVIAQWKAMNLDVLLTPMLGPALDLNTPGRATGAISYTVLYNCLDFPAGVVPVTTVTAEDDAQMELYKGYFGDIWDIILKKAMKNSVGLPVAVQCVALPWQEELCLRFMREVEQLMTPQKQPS
Experimental: A. Transfection of Cells with Rat FAAH
as §1, with “rat” for “human”
as §2, with “incubated at […] for 1” for “incubated at rt for 1”, “labeled ethanolamine . was centrifuged” for “labeled ethanolamine was centrifuged”
as §3

| Structure (SMILES) | IC50 (FAAH) [nM] | IC50 (Rat FAAH) [nM] |
| --- | --- | --- |
| O=C(c1ncco1)C1CCN(Cc2ccc(Cl)c(Cl)c2)CC1 [Example 44, [1-(3,4-Dichloro-benzyl)-piperidin-4-yl]-oxazol-2-yl-methanone] | 5 | 5 |
| O=C(c1ncco1)C1CCN(S(=O)(=O)c2ccc(Cl)cc2)CC1 [Example 4, [1-(4-Chloro-benzenesulfonyl)-piperidin-4-yl]-oxazol-2-yl-methanone] | 1200 | 8000 |
| COc1ccc2cc(CN3CCC(C(=O)c4ncco4)CC3)ccc2c1 [Example 46, [1-(6-Methoxy-naphthalen-2-ylmethyl)-piperidin-4-yl]-oxazol-2-yl-methanone] | 260 | 219 |
| O=C(c1ncco1)C1CCN(Cc2cc3ccccc3s2)CC1 [Example 54, (1-Benzo[b]thoiphen-2-ylmethyl-piperidin-4-yl)-oxazol-2-yl-methanone] | 2 | 9 |
| O=C(c1ncco1)C1CCN(Cc2cccc(Cl)c2)CC1 [Example 34, [1-(3-Chloro-benzyl)-piperidin-4-yl]-oxazol-2-yl-methanone] | 78 | 300 |
| O=C(c1ncco1)C1CCN(Cc2cccc(OC(F)(F)F)c2)CC1 [Example 37, Oxazol-2-yl-[1-(3-trifluoromethoxy-benzyl)-piperidin-4-yl]-methanone] | 25 | 40 |
| O=C(c1ncco1)C1CCN(Cc2ccc3c(c2)OCO3)CC1 [Example 15, (1-Benzo[1,3]dioxol-5-ylmethyl-piperidin-4-yl)-oxazol-2-yl-methanone] | 113 | 582 |
| O=C(c1ncco1)C1CCN(Cc2ccccc2Cl)CC1 [Example 33, [1-(2-Chloro-benzyl)-piperidin-4-yl]-oxazol-2-yl-methanone] | 156 | 890 |

Second part, the molecule after the results:

| IC50 (FAAH) [nM] | IC50 (Rat FAAH) [nM] | Structure (SMILES) |
| --- | --- | --- |
| 4 | 9 | O=C(c1ncco1)C1CCN(Cc2ccc3ccccc3c2)CC1 [Example 88, (1-Naphthalen-2-ylmethyl-piperidin-4-yl)-oxazol-2-yl-methanone] |
| 101 | 63 | O=C(c1ncco1)C1CCN(Cc2cccc3ccccc23)CC1 [Example 48, (1-Naphthalen-1-ylmethyl-piperidin-4-yl)-oxazol-2-yl-methanone] |
| 125 | 650 | O=C(c1ncco1)C1CCN(Cc2ccc(Cl)nc2)CC1 [Example 82, [1-(6-Chloro-pyridin-3-ylmethyl)-piperidin-4-yl]-oxazol-2-yl-methanone] |
| 244 | 1300 | COc1cccc(CN2CCC(C(=O)c3ncco3)CC2)c1 [Example 62, [1-(3-Methoxy-benzyl)-piperidin-4-yl]-oxazol-2-yl-methanone] |
| 175 | 600 | Cc1ccccc1CN1CCC(C(=O)c2ncco2)CC1 [Example 66, [1-(2-Methyl-benzyl)-piperidin-4-yl]-oxazol-2-yl-methanone] |
| 294 | 511 | COc1ccc2cc(CN3CCC(C(=O)c4ncco4)CC3)c(Cl)nc2c1 [Example 68, [1-(2-Chloro-7-methoxy-quinolin-3-ylmethyl)-piperidin-4-yl]-oxazol-2-yl-methanone] |
| 12 | 105 | O=C(c1ncco1)C1CCN(Cc2cc3ccccc3o2)CC1 [Example 55, (1-Benzofuran-2-ylmethyl-piperidin-4-yl)-oxazol-2-yl-methanone] |
| 500 | 290 | O=C(c1ncco1)C1CCN(Cc2cc3ccc(Cl)cc3nc2Cl)CC1 [Example 70, [1-(2,7-Dichloro-quinolin-3-ylmethyl)-piperidin-4-yl]-oxazol-2-yl-methanone] |
| 30 | 90 | O=C(c1ncco1)C1CCN(Cc2cnc3ccccc3n2)CC1 [Example 78, Oxazol-2-yl-(1-quinoxalin-2-ylmethyl-piperidin-4-yl)-methanone] |
| 782 | 370 | CC(c1cccc(C(F)(F)F)c1)N1CCC(C(=O)c2ncco2)CC1 (stereo not shown) [Example 91, Oxazol-2-yl-{1-[1-(3-trifluoromethyl-phenyl)-ethyl]-piperidin-4-yl}-methanone] |
| 4 | 4 | O=C(c1ncco1)C1CCN(Cc2ccc3cccc(Cl)c3n2)CC1 [Example 75, [1-(8-Chloro-quinolin-2-ylmethyl)-piperidin-4-yl]-oxazol-2-yl-methanone] |
| 208 | 1200 | COc1ccc(CN2CCC(C(=O)c3ncco3)CC2)cc1 [Example 61, [1-(4-Methoxy-benzyl)-piperidin-4-yl]-oxazol-2-yl-methanone] |
